The values that follow come from PMC5662472 (Chemical communications (Cambridge, England), 2017).

By Km is commonly meant the substrate concentration at which the rate is half of its maximum. Broadly, the kcat is the number of substrate molecules converted per active site and unit of time at saturation. A word on the kcat/Km: it is the turnover number divided by the Michaelis constant.

Series [1] has as its target Helicobacter pylori α1–3/4-fucosyltransferase (Hp3/4FT) (Helicobacter pylori, UniProt Q9L8S4). The series is described as follows: HPLC fucosyltransferase assay. To be noted: acceptor; co-substrate GDP-Fuc; labelled compound.
Series [2] relates to C[C@@H]1O[C@H](OP(=O)(O)OP(=O)(O)OC[C@H]2O[C@@H](n3cnc4c(=O)[nH]c(N)nc43)[C@H](O)[C@@H]2O)[C@@H](O)[C@H](O)[C@@H]1O. The series is described as follows: purified protein. The note with it: donor; co-substrate LacNAcβPro2AA (best acceptor).

Consider LacNAcβPro2AA, for which the Km in series [1] is 460 ± 70 µM.
The same measure, in the same setting: with LacβPro2AA the figure was 990 ± 180 µM.
Take “Helicobacter pylori α1–3/4-fucosyltransferase (Hp3/4FT) (Helicobacter pylori)”: in series [2], the Michaelis constant (Km) amounted to 860 ± 130 µM, the kcat was 6.02 ± 0.26 s⁻¹ and the kcat/Km turned out to be 7010 M⁻¹ s⁻¹.
With Galβ3GlcNAcβPro2AA, the Michaelis-Menten constant (Km) in series [1] came to 1320 ± 240 µM.
